Experimental findings from patent publication US6664426B1, “Ether and ester derivatives of the perborate icosahedron” (The Regents of the University of California, priority 2000, dated 2003) are described below.

The nature of the series: Qualitative solubility in water. The format is physicochemical. As to conditions: qualitative statement.
Turning to closo-1,12-(CH2OH)2-1,12-C2B10H10, the solubility in water result is “slightly water-soluble”.

In the case of Cs2[closo-B12(OH)12] [dicesium salt], the solubility in water entry is given as “freely soluble in water”.

For Cs2[closo-B12H12]^2−, the solubility in water result is given as “sparingly water-soluble”.

On to closo-1,12-C2B10H12, for which the solubility in water result was “not water-soluble”.

For the substance Cs[closo-1-CB11H12]^−, the solubility in water entry is given as “sparingly water-soluble”.
